From patent US11021444B2, “Antiviral compounds” (priority 2013, dated 2021)
Where two headings read alike, the source gives them in different places.

Legend:
[1] = tested on: Respiratory Syncytial Virus (RSV) long strain; test: microbe, parasite or virus in culture; assay type: cell-based; settings: human respiratory syncytial virus, Tables A and B list compounds by EC50 band
Method in brief: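 HEp-2 cells infected with 100 TCID50 virus per well, compounds in duplicate, 9-point 1/3 dilutions from 100 μM or 1 μM, 1% DMSO. After 5 days at 37 °C, cell viability (CPE protection) read by CCK-8 absorbance at 450 nm, 630 nm background.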

[2] = Cytotoxicity Determination (CCK-8, without addition of virus); assay type: cell-based; settings: human, 50% cytotoxicity concentration (CC50)
Method in brief: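 HEp-2 cells were seeded at 1,500 cells/well one day before compound addition. Compounds were tested without virus in duplicate over 7 points from 100 μM in 1/2 steps, with 1% final DMSO, 5 days at 37 °C, 5% CO2. Viability was read by CCK-8 after 3-4 hours.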

recombinant RSV complex = recombinant RSV complex (Human respiratory syncytial virus A, UniProt P28887); test: RSV Polymerase Inhibition Assay; assay type: biochemical
recombinant RSV complex, sequence (P28887 whole entry): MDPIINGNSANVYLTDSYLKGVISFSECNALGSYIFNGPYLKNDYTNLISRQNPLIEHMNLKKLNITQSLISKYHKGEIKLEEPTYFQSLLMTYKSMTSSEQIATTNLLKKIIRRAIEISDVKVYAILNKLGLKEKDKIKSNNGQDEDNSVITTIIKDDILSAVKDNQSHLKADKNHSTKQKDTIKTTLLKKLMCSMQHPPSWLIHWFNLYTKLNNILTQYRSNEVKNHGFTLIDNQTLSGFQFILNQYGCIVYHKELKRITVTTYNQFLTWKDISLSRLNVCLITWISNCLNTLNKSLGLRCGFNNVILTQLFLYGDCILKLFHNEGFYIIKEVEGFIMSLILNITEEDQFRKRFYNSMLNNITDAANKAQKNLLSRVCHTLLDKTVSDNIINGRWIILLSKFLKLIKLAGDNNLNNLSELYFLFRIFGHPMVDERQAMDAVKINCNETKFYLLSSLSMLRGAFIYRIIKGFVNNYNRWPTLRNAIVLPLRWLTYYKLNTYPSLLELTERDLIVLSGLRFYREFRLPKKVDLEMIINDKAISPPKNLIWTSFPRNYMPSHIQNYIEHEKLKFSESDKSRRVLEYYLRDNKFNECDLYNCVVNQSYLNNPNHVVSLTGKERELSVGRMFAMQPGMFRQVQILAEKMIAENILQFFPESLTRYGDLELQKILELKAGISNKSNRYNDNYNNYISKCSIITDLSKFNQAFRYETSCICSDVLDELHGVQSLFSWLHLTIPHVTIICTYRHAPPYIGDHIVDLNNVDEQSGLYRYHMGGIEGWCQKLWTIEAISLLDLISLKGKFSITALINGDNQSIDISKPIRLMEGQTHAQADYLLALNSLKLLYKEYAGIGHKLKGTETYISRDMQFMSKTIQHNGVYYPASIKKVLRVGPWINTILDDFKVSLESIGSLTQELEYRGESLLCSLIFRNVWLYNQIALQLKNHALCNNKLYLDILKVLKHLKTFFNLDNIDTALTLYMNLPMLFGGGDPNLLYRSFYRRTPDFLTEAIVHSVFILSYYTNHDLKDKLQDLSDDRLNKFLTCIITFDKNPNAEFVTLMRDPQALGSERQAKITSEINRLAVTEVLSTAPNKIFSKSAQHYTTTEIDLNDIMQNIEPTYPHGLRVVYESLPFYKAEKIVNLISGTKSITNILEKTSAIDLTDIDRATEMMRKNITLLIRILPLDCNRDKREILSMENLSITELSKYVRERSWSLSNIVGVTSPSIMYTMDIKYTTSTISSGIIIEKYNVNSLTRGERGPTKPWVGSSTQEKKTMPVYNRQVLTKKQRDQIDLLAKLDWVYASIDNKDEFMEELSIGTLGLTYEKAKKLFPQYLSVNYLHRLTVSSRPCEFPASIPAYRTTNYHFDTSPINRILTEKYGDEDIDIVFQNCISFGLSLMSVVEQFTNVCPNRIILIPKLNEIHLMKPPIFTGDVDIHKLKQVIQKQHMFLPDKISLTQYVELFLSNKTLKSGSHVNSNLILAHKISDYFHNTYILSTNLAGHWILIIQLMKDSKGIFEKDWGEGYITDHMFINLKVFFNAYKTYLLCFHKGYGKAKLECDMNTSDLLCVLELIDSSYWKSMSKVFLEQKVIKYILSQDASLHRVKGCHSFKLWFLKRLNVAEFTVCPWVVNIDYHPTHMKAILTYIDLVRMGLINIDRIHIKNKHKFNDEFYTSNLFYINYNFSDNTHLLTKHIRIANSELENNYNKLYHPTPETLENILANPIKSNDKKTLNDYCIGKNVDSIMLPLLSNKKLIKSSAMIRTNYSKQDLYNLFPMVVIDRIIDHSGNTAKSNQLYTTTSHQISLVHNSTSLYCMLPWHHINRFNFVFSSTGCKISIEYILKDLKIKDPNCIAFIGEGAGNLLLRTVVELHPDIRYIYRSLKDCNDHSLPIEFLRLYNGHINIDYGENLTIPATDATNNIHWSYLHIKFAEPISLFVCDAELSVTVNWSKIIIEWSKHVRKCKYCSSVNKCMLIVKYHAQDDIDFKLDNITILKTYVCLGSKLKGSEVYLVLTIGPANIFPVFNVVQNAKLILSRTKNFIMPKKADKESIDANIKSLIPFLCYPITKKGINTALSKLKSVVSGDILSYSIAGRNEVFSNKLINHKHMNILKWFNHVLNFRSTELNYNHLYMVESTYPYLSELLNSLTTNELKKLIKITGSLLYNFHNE
recombinant RSV complex, sequence (P03421 whole entry, further chain): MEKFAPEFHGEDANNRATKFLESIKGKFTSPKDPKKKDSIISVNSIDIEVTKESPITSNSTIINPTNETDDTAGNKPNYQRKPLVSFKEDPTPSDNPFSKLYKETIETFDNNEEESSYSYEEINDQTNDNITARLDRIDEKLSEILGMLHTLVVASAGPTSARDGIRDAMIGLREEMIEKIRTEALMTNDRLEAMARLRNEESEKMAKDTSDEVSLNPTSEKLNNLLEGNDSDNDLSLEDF
Method in brief: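 10 nM recombinant RSV polymerase complex in Tris-HCl pH 7.5, 6 mM MgCl2 with RNA oligonucleotide template and radionucleotides, incubated 2 h at 30 °C with increasing inhibitor concentrations. Reaction stopped with EDTA; radiolabeled RNA product counted by scintillation.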

[3] = HEp-2, 120 h, read-out: 50% effective concentration (EC50), HEp-2 cells infected with RSV long strain, 5 days, CCK-8 readout
[4] = 120 h, read-out: 50% effective concentration (EC50), HEp-2 cells infected with RSV long strain, 5 days, CCK-8 readout

SMILES: COCC(C)(NC(C)=O)c1cc(-c2ccc(F)c(Cl)c2)nc(C(O)(CNC(=O)c2ccc(OC3CC3)c(OC)c2)C(F)(F)F)c1 (stereo not drawn) [Compound 537]
- EC50 [1, 3]: < 1 µM
- CC50 at 5 days [2]: 10 to 100 µM
- IC50 (recombinant RSV complex): < 1 µM

SMILES: COc1cc(C(=O)NCC(O)(CN2CCNCC2)c2ccc(OC)c(-c3ccc(F)c(Cl)c3)n2)ccc1OCCO (stereo not drawn) [Compound 190]
- EC50 [1, 4]: 1 to 50 µM
- CC50 at 5 days [2]: > 100 µM
- IC50 (recombinant RSV complex): < 1 µM

SMILES: COc1cc(C(=O)NCC(O)(c2cc3c(c(-c4ccc(F)c(Cl)c4)n2)OCC3(C)C)C(F)(F)F)cc2ccc(C(N)=O)nc12 (stereo not drawn) [Compound 214]
- EC50 [1, 3]: < 1 µM
- CC50 at 5 days [2]: 10 to 100 µM
- IC50 (recombinant RSV complex): < 1 µM

SMILES: COc1cc(C(=O)NCC(C)(O)c2cc3c(c(-c4ccc(F)c(Cl)c4)n2)OCC3(C)C)ccc1OCCF (stereo not drawn) [Compound 227]
- EC50 [1, 3]: < 1 µM
- CC50 at 5 days [2]: 10 to 100 µM
- IC50 (recombinant RSV complex): < 1 µM

SMILES: Cc1nc(C(=O)NCC(O)(c2cc(C(C)(C)N)cc(-c3ccc(F)cc3)n2)C(F)(F)F)co1 (stereo not drawn) [Compound 607]
- EC50 [1, 3]: 1 to 50 µM
- CC50 at 5 days [2]: 10 to 100 µM
- IC50 (recombinant RSV complex): < 10 µM

SMILES: COc1cc(C(=O)NCC(O)(c2cc3c(c(-c4ccc(C(F)(F)F)nc4)n2)OCC3(C)N)C(F)(F)F)ccc1OCCO (stereo not drawn) [Compound 673]
- EC50 [1, 3]: 1 to 50 µM
- CC50 at 5 days [2]: > 100 µM
- IC50 (recombinant RSV complex): < 10 µM

SMILES: COc1cc(C(=O)NCC(O)(CN(C)C)c2ccc(OC)c(-c3ccc(F)c(Cl)c3)n2)ccc1OCCO (stereo not drawn) [Compound 178]
- EC50 [1, 3]: 1 to 50 µM
- CC50 at 5 days [2]: > 100 µM
- IC50 (recombinant RSV complex): < 100 µM

SMILES: COc1cc(C(=O)NCC(O)(c2cc(C(C)(N)CO)cc(-c3ccc(F)cc3)n2)C(F)(F)F)ccc1OCCO (stereo not drawn) [Compound 484]
- EC50 [1, 3]: 1 to 50 µM
- CC50 at 5 days [2]: > 100 µM
- IC50 (recombinant RSV complex): < 10 µM

SMILES: CC(C)(N)c1cc(-c2ccc(F)cc2)nc(C(O)(CNC(=O)c2ccc3c(c2)NC(=O)C3)C(F)(F)F)c1 (stereo not drawn) [Compound 570]
- EC50 [1, 4]: < 1 µM
- CC50 at 5 days [2]: 10 to 100 µM
- IC50 (recombinant RSV complex): < 1 µM

SMILES: COc1cc(C(=O)NC[C@@](O)(c2cc3c(c(-c4ccc(F)cc4)n2)OC[C@]3(C)N)C(F)(F)F)ccc1OC[C@@H](C)O [Compound 629]
- EC50 [1, 3]: < 1 µM
- CC50 at 5 days [2]: 10 to 100 µM
- IC50 (recombinant RSV complex): < 1 µM

SMILES: COc1cc(C(=O)NCC(O)(c2ccc(OC)c(-c3ccc(F)c(Cl)c3)n2)C(F)(F)F)ccc1OCC(F)(F)F (stereo not drawn) [Compound 233]
- EC50 [1, 3]: 1 to 50 µM
- CC50 at 5 days [2]: > 100 µM
- IC50 (recombinant RSV complex): < 1 µM

SMILES: COc1cc(C(=O)NCC(N)(CF)c2ccc(OC)c(-c3ccc(F)c(Cl)c3)n2)ccc1OC1CC1 (stereo not drawn) [Compound 518]
- EC50 [1, 3]: < 1 µM
- CC50 at 5 days [2]: 10 to 100 µM
- IC50 (recombinant RSV complex): < 1 µM

SMILES: COc1cc(C(=O)NCC(O)(CN2CCNC(=O)C2)c2ccc(OC)c(-c3ccc(F)c(Cl)c3)n2)ccc1OCCO (stereo not drawn) [Compound 182]
- EC50 [1, 3]: < 1 µM
- CC50 at 5 days [2]: > 100 µM
- IC50 (recombinant RSV complex): < 1 µM

SMILES: COc1cc(C(=O)NC[C@@](O)(c2cc(C(C)(C)N)cc(-c3ccc(F)cc3)n2)C(F)(F)F)ccc1OCCO [Compound 553]
- EC50 [1, 3]: < 1 µM
- CC50 at 5 days [2]: 10 to 100 µM
- IC50 (recombinant RSV complex): < 1 µM

SMILES: COc1cc(C(=O)NCC(O)(CN2CCOCC2)c2ccc(OC)c(-c3ccc(F)c(Cl)c3)n2)ccc1OCCO (stereo not drawn) [Compound 181]
- EC50 [1, 3]: < 1 µM
- CC50 at 5 days [2]: > 100 µM
- IC50 (recombinant RSV complex): < 1 µM

SMILES: COc1ccc(C(O)(CNC(=O)c2ccc(OC3CC3)c(Cl)c2)C(F)(F)F)nc1-c1ccc(F)c(Cl)c1 (stereo not drawn) [Compound 251]
- EC50 [1, 3]: 1 to 50 µM
- CC50 at 5 days [2]: 10 to 100 µM
- IC50 (recombinant RSV complex): < 1 µM

SMILES: COCC(C)(N)c1cc(-c2ccc(F)c(Cl)c2)nc(C(O)(CNC(=O)c2ccc(OCCO)c(OC)c2)C(F)(F)F)c1 (stereo not drawn) [Compound 541]
- EC50 [1, 3]: < 1 µM
- CC50 at 5 days [2]: 10 to 100 µM
- IC50 (recombinant RSV complex): < 1 µM

SMILES: COc1cc(C(=O)NCC(=O)c2cc3c(c(-c4ccc(F)c(Cl)c4)n2)OCC3(C)C)ccc1OC1CCNC1=O (stereo not drawn) [Compound 217]
- EC50 [1, 3]: < 1 µM
- CC50 at 5 days [2]: 10 to 100 µM
- IC50 (recombinant RSV complex): < 1 µM

SMILES: COc1ccc(C(O)(CNC(=O)c2ccc3c(c2)NC(=O)CO3)C(F)(F)F)nc1-c1ccc(F)c(Cl)c1 (stereo not drawn) [Compound 258]
- EC50 [1, 3]: < 1 µM
- CC50 at 5 days [2]: 10 to 100 µM
- IC50 (recombinant RSV complex): < 1 µM
